US9090651B2, “Helix 12 directed pharmaceutical products” (ENDORECHERCHE, INC., priority 2004, dated 2015)
Where “and” joins values, the source holds several entries; their conditions need not be identical. Equal values may be shown once. Read-outs that look alike come from different tables or passages of the source.

Columns and labels:
[1] = tested on: rat prostate; test: Systemic antiandrogenic activity, orchidectomized immature male rats with DHT implant: prostate weight; type: in vivo; details: Rattus norvegicus, po, 168 h, 0.5 mg, per os; read-out: Prostate Rat Inh % inh (0.5 mg, per os)
Protocol: (§1) Immature male rats (Crl:CD(SD)Br) 22 to 24-day old were obtained from Charles-River, Inc. (St-Constant, Quebec, Canada) and housed up to 5 per cage in plastic bins in a temperature (23±1° C.)- and light (12 h light/day, lights on at 7 h15)-controlled environment. The rats were fed rodent chow and tap water ad libitum. The day following their arrival, the animals were orchidectomized (CX) under Isoflurane anesthesia via scrotal route and randomly assigned to groups of 5 animals.
(§2) Compounds were solubilized (when possible) in dimethylsulfoxide (DMSO, 10% final concentration) and administered as suspension in 0.4% methylcellulose. […] One group of animals received the antiandrogen Flutamide as reference. The animals were killed by cervical dislocation under isoflurane anesthesia on the 8th morning following castration. The ventral prostate and seminal vesicles were rapidly dissected and weighed.
(§3) W is the weight of the prostate or the seminal vesicle.

[2] = tested on: sebaceous glands of the left ear; test: Topical antiandrogenic activity, ear sebaceous glands model in the male hamster; type: in vivo; details: Mesocricetus auratus, 336 h, topical on left pinna, read-out: Antiandrogenic activity in Hamster Ear Area Inh Vs Cx (%); for inhibition in vivo at 0.1 mg: 100 μg daily for 14 days; for inhibition in vivo at 0.01 mg: 10 μg daily for 14 days
Protocol: The antiandrogenic activity of compounds for topical use was determined using the ear sebaceous glands model in the male hamster.
Male Golden Syrian Hamsters (SYR) of 110-120 g were obtained from Harlan Sprague-Dawley (Madison, USA) and housed up to 2 per plastic cage in a temperature (22±3° C.) and light (12 h light/day, lights on at 7 h15)-controlled environment. The hamsters were fed with Certified Rodent Diet 5002 (pellet) and had access to tap water ad libitum. The animals were acclimatized for at least five days prior to beginning the study. Animals were randomly assigned to groups of eight hamsters. One group of hamsters were castrated under isoflurane-induced anesthesia on the day of dosing initiation (SD 1) and used as control group.
To evaluate the antiandrogenic activity, the tested compounds were applied topically on the inner part of the left ear, once daily, for 14 days. […] For animals of the castrated and intact control groups, one ten-μL vehicle was applied onto the left ear. No solution was applied on the right ear.
On Study Day 15, the hamsters were euthanized by cervical dislocation under isoflurane anesthesia. The left and right ears were collected attached together by the head skin, flat fixed on a paper and then immersed in 10% neutral buffered formalin. Punctures making a circular hole of 6 mm were made on the flat fixed ear in the region where the solution has been applied. These punch-made specimens were collected from each ear. Using a scalpel blade, the collected 6 mm round ear specimens were cut in the middle between the two cartilage ridges. The two equal parts of the ear round specimens were embedded in paraffin. After processing the tissue, the two parts were vertically embedded parallel to each other in such a way that the flat 6 mm area was facing out. From each paraffin block, one section (5 μm thick) was cut and collected on a glass slide. Thus, each slide contained two elongated sections of 6 mm length. Slides were stained with hematoxylin and eosin.
Using the video camera and the lens number X5 of the light microscope, the resulting field appearing on the screen has a length of 0.953 mm. When the first 6 mm long section was examined from the left to the right, the first and second fields were ignored and the third and fourth fields were captured for analysis by the image analyzer. Each field has the length of 0.953 mm. With the help of the screen mouse, the sebaceous glands within the whole field length (0.953 mm) were marked. Also, an area having the length of the whole field and the height between stratum granulosum and the upper edge of the cartilage was drawn.
The total area of the sebaceous glands (μm^2) in each examined field was calculated by the Image Analyser. We also measured the total area, which has the length of 0.953 mm and the height between stratum granulosum and the cartilage. In addition, the percentage of the area occupied by the glands was obtained. Thus, for each ear, two sections were cut and two fields from each section were analyzed. The total of the four readings was averaged and the mean standard error of the mean was calculated by the image analyzer. The results were expressed in μm^2 as the total surface of glands per field and also as percentage of the area occupied by the glands in the tissue.

[3] = target: T1, Human Androgen Receptor (Homo sapiens, UniProt P10275); test: Androgen receptor binding assay (hydroxylapatite, [3H]R1881, cytosol of transfected HEK-293 cells); details: for Androgen Receptor Binding (%) Human RBA R1881 = 100: % RBA=100×IC50 R1881/IC50 compound, transfected cells; for RBA human: Table 4, relative to R1881
T1 sequence (P10275 1-920): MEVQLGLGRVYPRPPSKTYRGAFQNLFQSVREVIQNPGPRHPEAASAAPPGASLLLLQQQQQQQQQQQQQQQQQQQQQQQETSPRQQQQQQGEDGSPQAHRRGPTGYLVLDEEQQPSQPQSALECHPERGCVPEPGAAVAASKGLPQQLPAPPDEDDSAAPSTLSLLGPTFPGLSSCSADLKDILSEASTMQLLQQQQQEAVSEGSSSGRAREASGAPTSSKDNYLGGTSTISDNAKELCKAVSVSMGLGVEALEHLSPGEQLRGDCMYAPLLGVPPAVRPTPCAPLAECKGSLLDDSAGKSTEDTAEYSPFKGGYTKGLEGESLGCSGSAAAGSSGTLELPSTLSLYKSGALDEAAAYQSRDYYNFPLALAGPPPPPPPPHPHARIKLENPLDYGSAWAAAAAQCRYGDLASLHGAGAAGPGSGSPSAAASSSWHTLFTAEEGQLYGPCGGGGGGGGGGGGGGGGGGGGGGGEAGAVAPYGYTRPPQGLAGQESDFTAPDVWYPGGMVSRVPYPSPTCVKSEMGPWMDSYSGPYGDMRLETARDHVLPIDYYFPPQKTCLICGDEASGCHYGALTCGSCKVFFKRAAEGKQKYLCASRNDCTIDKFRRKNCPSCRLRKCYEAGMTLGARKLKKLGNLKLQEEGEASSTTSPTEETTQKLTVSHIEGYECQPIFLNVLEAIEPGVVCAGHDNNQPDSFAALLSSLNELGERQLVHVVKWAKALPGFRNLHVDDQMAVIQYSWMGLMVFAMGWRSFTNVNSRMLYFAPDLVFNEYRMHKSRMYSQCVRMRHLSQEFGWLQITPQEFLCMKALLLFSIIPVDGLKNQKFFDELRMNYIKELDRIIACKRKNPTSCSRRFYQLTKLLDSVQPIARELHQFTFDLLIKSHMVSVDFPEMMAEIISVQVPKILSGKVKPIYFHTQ

[4] = tested on: Shionogi mouse mammary carcinoma cells; test: Androgenic/antiandrogenic activity on DHT-stimulated Shionogi cell growth; type: cell-based; details: for Shionogi VS OH-FLU: ratio of Ki hydroxyflutamide versus tested compound
[5] = tested on: rat seminal vesicle; test: Systemic antiandrogenic activity, orchidectomized immature male rats with DHT implant: seminal vesicle weight; type: in vivo; details: Rattus norvegicus, po, 168 h, 0.5 mg, per os; read-out: SV RAT Inh % inh (0.5 mg, per os)
Protocol: as §1, §2, §3

[6] = Mus musculus, read-out: Shionogi Antiandrogenic activity IC50 (nM), inhibition of DHT-stimulated Shionogi cell number
[7] = Mus musculus, read-out: Shionogi IC50 (nM), Table 4, inhibition of DHT-stimulated Shionogi cell number

## CCC[C@H](NC(CC)CC)c1cccc(OCC[C@]23CCC4C(CCC5CC(=O)CC[C@@]54C)C2CC[C@@H]3O)c1 (stereo in doubt) [EM-6445]
[1]
  inhibition in vivo at 0.5 mg: 3%
[2]
  inhibition in vivo at 0.1 mg: 96%
[3]
  Androgen Receptor Binding (%) Human RBA R1881 = 100: 168%
  RBA human: 336%
[4]; [6]
  IC50: 0.2 nM
[4]; [7]
  IC50: 0.2 nM
[4]; Table 4
  Shionogi VS OH-FLU: 231
[5]
  inhibition in vivo at 0.5 mg: 0%

## CCC(CC)NC(CC)c1cccc(OCC[C@]23CCC4C(CCC5CC(=O)CC[C@@]54C)C2CC[C@@H]3O)c1 (stereo partly drawn) [EM-6339]
[2]
  inhibition in vivo at 0.01 mg: 55%
  inhibition in vivo at 0.1 mg: 67%
[3]
  Androgen Receptor Binding (%) Human RBA R1881 = 100: 240% and 236%
  RBA human: 236%
[4]; [6]
  IC50: 2.3 nM
[4]; [7]
  IC50: 2.3 nM
[4]; read-out: Shionogi Antiandrogenic activity IC50, inhibition of DHT-stimulated Shionogi cell number
  IC50: 3 nM
[4]; read-out: Shionogi IC50, Table 4, inhibition of DHT-stimulated Shionogi cell number
  IC50: 3 nM

## CCN(C1CCCCC1)[C@H](C)c1cccc(OCC[C@]23CCC4C(CCC5CC(=O)CC[C@@]54C)C2CC[C@@H]3O)c1 (stereo partly drawn) [EM-6414]
[1]
  inhibition in vivo at 0.5 mg: 6%
[2]
  inhibition in vivo at 0.01 mg: 55%
  inhibition in vivo at 0.1 mg: 64%
[3]
  Androgen Receptor Binding (%) Human RBA R1881 = 100: 121%
  RBA human: 71%
[4]; [6]
  IC50: 4 nM
[4]; [7]
  IC50: 4 nM
[4]; Table 4
  Shionogi VS OH-FLU: 1
[5]
  inhibition in vivo at 0.5 mg: 28%

## CC[C@H](NC1CCCCC1)c1cccc(OCC[C@]23CCC4C(CCC5CC(=O)CC[C@@]54C)C2CC[C@@H]3O)c1 (stereo partly drawn) [EM-6415]
[1]
  inhibition in vivo at 0.5 mg: 14%
[2]
  inhibition in vivo at 0.01 mg: 52%
  inhibition in vivo at 0.1 mg: 84%
[3]
  Androgen Receptor Binding (%) Human RBA R1881 = 100: 230%
  RBA human: 185%
[4]; [6]
  IC50: 0.47 nM
[4]; [7]
  IC50: 1.4 nM
[4]; Table 4
  Shionogi VS OH-FLU: 29
[5]
  inhibition in vivo at 0.5 mg: 0%

## CCC(CC)NC(c1cccc(OCC[C@]23CCC4C(CCC5CC(=O)CC[C@@]54C)C2CC[C@@H]3O)c1)C(C)C (stereo partly drawn) [EM-6446]
[1]
  inhibition in vivo at 0.5 mg: 11%
[2]
  inhibition in vivo at 0.01 mg: 56%
  inhibition in vivo at 0.1 mg: 79%
[3]
  RBA human: 715%
[4]; [7]
  IC50: 1 nM
[4]; Table 4
  Shionogi VS OH-FLU: 51
[5]
  inhibition in vivo at 0.5 mg: 3%

## CC(C)CN1CCCCC1c1cccc(OCC[C@]23CCC4C(CCC5CC(=O)CC[C@@]54C)C2CC[C@@H]3O)c1 (stereo partly drawn) [EM-6493]
[1]
  inhibition in vivo at 0.5 mg: 15%
[2]
  inhibition in vivo at 0.01 mg: 44%
  inhibition in vivo at 0.1 mg: 63%
[3]
  Androgen Receptor Binding (%) Human RBA R1881 = 100: 92% and 173%
  RBA human: 173%
[4]; [6]
  IC50: 4.3 nM
[4]; [7]
  IC50: 3.6 nM
[4]; Table 4
  Shionogi VS OH-FLU: 16
[5]
  inhibition in vivo at 0.5 mg: 19%

## CCCCCN1CCCCC1c1cccc(OCC[C@]23CCC4C(CCC5CC(=O)CC[C@@]54C)C2CC[C@@H]3O)c1 (stereo partly drawn) [EM-6494]
[1]
  inhibition in vivo at 0.5 mg: 0%
[2]
  inhibition in vivo at 0.1 mg: 68%
[3]
  Androgen Receptor Binding (%) Human RBA R1881 = 100: 63% and 97%
  RBA human: 97%
[4]; [6]
  IC50: 10.5 nM
[4]; [7]
  IC50: 10.5 nM
[4]; Table 4
  Shionogi VS OH-FLU: 5.4
[5]
  inhibition in vivo at 0.5 mg: 1%

## CC(C)CNC(C)(C)c1cccc(OCC[C@]23CCC4C(CCC5CC(=O)CC[C@@]54C)C2CC[C@@H]3O)c1 (stereo partly drawn) [EM-6534]
[1]
  inhibition in vivo at 0.5 mg: 9%
[2]
  inhibition in vivo at 0.01 mg: 48%
  inhibition in vivo at 0.1 mg: 84%
[3]
  Androgen Receptor Binding (%) Human RBA R1881 = 100: 112%
  RBA human: 112%
[4]; [6]
  IC50: 0.4 nM
[4]; [7]
  IC50: 0.23 nM
[4]; Table 4
  Shionogi VS OH-FLU: 267
[5]
  inhibition in vivo at 0.5 mg: 16%

## COC1CCC2C3CCC4CC(=O)CC[C@]4(C)C3CC[C@]12CCOc1cccc(C(C)(C)NCC(C)C)c1 (stereo partly drawn) [EM-6628]
[1]
  inhibition in vivo at 0.5 mg: 15%
[2]
  inhibition in vivo at 0.01 mg: 58.1%
[3]
  RBA human: 796%
[4]; [7]
  IC50: 5.9 nM
[4]; Table 4
  Shionogi VS OH-FLU: 14
[5]
  inhibition in vivo at 0.5 mg: 0%

## CCC[C@H](NC1CCCCC1)c1cccc(OCC[C@]23CCC4C(CCC5CC(=O)CC[C@@]54C)C2CCC3=O)c1 (stereo partly drawn) [EM-6736]
[2]
  inhibition in vivo at 0.01 mg: 49.5%
[3]
  RBA human: 154%
[4]; [7]
  IC50: 1.8 nM
[4]; Table 4
  Shionogi VS OH-FLU: 43

## CC(C)CNC(C)(C)c1cccc(OCC[C@]23CCC4C(CCC5CC(=O)CC[C@@]54C)C2CCC3=O)c1 (stereo partly drawn) [EM-6741]
[2]
  inhibition in vivo at 0.01 mg: 51.7%
[3]
  RBA human: 230%
[4]; [7]
  IC50: 0.6 nM
[4]; Table 4
  Shionogi VS OH-FLU: 153
